Laboratory results as given in ChEMBL document CHEMBL6177921, “Enhancing the antimycobacterial efficacy of pyridine-4-carbohydrazide: linkage to additional antimicrobial agents via oxocarboxylic acids” (RSC Med Chem, 2025).
In brackets after ≈: the same amount, converted by molar mass.

What was measured:
Format in all cases: functional
[1] = test system: Mycobacterium tuberculosis; assay: Antimycobacterial activity against STM/INH/EMB/RIF/CLO-resistant Mycobacterium tuberculosis clinical isolate Praha 1 assessed as bacterial growth inhibition incubated for 14 days by two-fold serial dilution method; settings: Praha 1, 336 h, time 14 day
[2] = test system: Mycobacterium tuberculosis; assay: Antimycobacterial activity against STM/INH/EMB/RIF/CLO-resistant Mycobacterium tuberculosis clinical isolate Praha 1 assessed as bacterial growth inhibition incubated for 21 days by two-fold serial dilution method; settings: Praha 1, 504 h, time 21 day
[3] = test system: Mycobacterium tuberculosis; assay: Antimycobacterial activity against STM/INH/EMB/RIF/OFX/CLO resistant Mycobacterium tuberculosis clinical isolate Praha 4 assessed as bacterial growth inhibition incubated for 14 days by two-fold serial dilution method; settings: Praha 4, 336 h, time 14 day
[4] = test system: Mycobacterium tuberculosis; assay: Antimycobacterial activity against STM/INH/EMB/RIF/OFX/CLO-resistant Mycobacterium tuberculosis clinical isolate Praha 4 assessed as bacterial growth inhibition incubated for 21 days by two-fold serial dilution method; settings: Praha 4, 504 h, time 21 day
[5] = test system: Mycobacterium tuberculosis; assay: Antimycobacterial activity against STM/INH/EMB/RIF/OFX/GEN/AMK-resistant Mycobacterium tuberculosis clinical isolate Praha 131 assessed as bacterial growth inhibition incubated for 14 days by two-fold serial dilution method; settings: Praha 131, 336 h, time 14 day
[6] = test system: Mycobacterium tuberculosis; assay: Antimycobacterial activity against TM/INH/EMB/RIF/OFX/GEN/AMK-resistant Mycobacterium tuberculosis clinical isolate Praha 131 assessed as bacterial growth inhibition incubated for 21 days by two-fold serial dilution method; settings: Praha 131, 504 h, time 21 day
[7] = test system: Mycobacterium tuberculosis; assay: Antimycobacterial activity against STM/INH/EMB/RIF resistant Mycobacterium tuberculosis clinical isolate 234/2005 assessed as bacterial growth inhibition incubated for 14 days by two-fold serial dilution method; settings: 234/2005, 336 h, time 14 day
[8] = test system: Mycobacterium tuberculosis; assay: Antimycobacterial activity against STM/INH/EMB/RIF resistant Mycobacterium tuberculosis clinical isolate 234/2005 strain assessed as bacterial growth inhibition incubated for 21 days by two-fold serial dilution method; settings: 234/2005, 504 h, time 21 day
[9] = test system: Mycobacterium tuberculosis; assay: Antimycobacterial activity against STM/INH/RIF resistant Mycobacterium tuberculosis clinical isolate 9449/2007 strain assessed as bacterial growth inhibition incubated for 14 days by two-fold serial dilution method; settings: 9449/2007, 336 h, time 14 day
[10] = test system: Mycobacterium tuberculosis; assay: Antimycobacterial activity against STM/INH/RIF resistant Mycobacterium tuberculosis clinical isolate 9449/2007 strain assessed as bacterial growth inhibition incubated for 21 days by two-fold serial dilution method; settings: 9449/2007, 504 h, time 21 day
[11] = test system: Mycobacterium tuberculosis; assay: Antimycobacterial activity against STM/INH/EMB/RIF/OFX resistant Mycobacterium tuberculosis clinical isolate 7357/1998 strain assessed as bacterial growth inhibition incubated for 14 days by two-fold serial dilution method; settings: 7357/1998, 336 h, time 14 day
[12] = test system: Mycobacterium tuberculosis; assay: Antimycobacterial activity against STM/INH/EMB/RIF/OFX resistant Mycobacterium tuberculosis clinical isolate 7357/1998 strain assessed as bacterial growth inhibition incubated for 21 days by two-fold serial dilution method; settings: 7357/1998, 504 h, time 21 day
[13] = test system: Mycobacterium tuberculosis; assay: Antimycobacterial activity against STM/INH/EMB/RIF/OFX/CLO resistant Mycobacterium tuberculosis clinical isolate 8666/2010 strain assessed as bacterial growth inhibition incubated for 14 days by two-fold serial dilution method; settings: 8666/2010, 336 h, time 14 day
[14] = test system: Mycobacterium tuberculosis; assay: Antimycobacterial activity against STM/INH/EMB/RIF/OFX/CLO resistant Mycobacterium tuberculosis clinical isolate 8666/2010 strain assessed as bacterial growth inhibition incubated for 21 days by two-fold serial dilution method; settings: 8666/2010, 504 h, time 21 day

Row | SMILES | MIC [1] | MIC [2] | MIC [3] | MIC [4] | MIC [5] | MIC [6] | MIC [7] | MIC [8] | MIC [9] | MIC [10] | MIC [11] | MIC [12] | MIC [13] | MIC [14]
1 | CNC(C)[C@@H]1CC[C@@H](N)[C@@H](O[C@H]2[C@H](O)[C@@H](O[C@H]3OC[C@](C)(O)[C@H](NC)[C@H]3O)[C@H](N)C[C@@H]2N)O1.CN[C@@H]1[C@@H](O)[C@@H](O[C@@H]2[C@@H](O)[C@H](O[C@H]3O[C@H](C(C)N)CC[C@H]3N)[C@@H](N)C[C@H]2N)OC[C@]1(C)O.CN[C@@H]1[C@@H](O)[C@@H](O[C@@H]2[C@@H](O)[C@H](O[C@H]3O[C@H](CN)CC[C@H]3N)[C@@H](N)C[C@H]2N)OC[C@]1(C)O (stereo partly drawn) | 1 µM | 1 µM | 0.5 µM | 0.5 µM | > 17 µM | > 17 µM | 0.26 µM | 0.26 µM | 1 µM | 1 µM | 1 µM | 1 µM | 4 µM | 4 µM
2 | C/C(=N\NC(=O)c1ccncc1)C(=O)Nc1ccc(Oc2ccccc2)cc1 | 16 µM (≈ 5.99 µg/mL) | 16 µM (≈ 5.99 µg/mL) | 16 µM (≈ 5.99 µg/mL) | 16 µM (≈ 5.99 µg/mL) | 16 µM (≈ 5.99 µg/mL) | 16 µM (≈ 5.99 µg/mL) | 8 µM (≈ 3 µg/mL) | 16 µM (≈ 5.99 µg/mL) | 16 µM (≈ 5.99 µg/mL) | 16 µM (≈ 5.99 µg/mL) | 16 µM (≈ 5.99 µg/mL) | 16 µM (≈ 5.99 µg/mL) | 16 µM (≈ 5.99 µg/mL) | 16 µM (≈ 5.99 µg/mL)
3 | C/C(=N\NC(=O)c1ccncc1)C(=O)Nc1ccc(S(=O)(=O)Nc2cc(C)on2)cc1 | – | – | – | – | ≥ 250 µM | ≥ 250 µM | – | – | ≥ 250 µM | ≥ 250 µM | – | – | ≥ 250 µM | ≥ 250 µM
4 | C/C(=N\NC(=O)c1ccncc1)C(=O)Nc1ccc(-c2ccccc2)cc1 | 32 µM (≈ 11.5 µg/mL) | 64 µM (≈ 22.9 µg/mL) | 64 µM (≈ 22.9 µg/mL) | 64 µM (≈ 22.9 µg/mL) | 32 µM (≈ 11.5 µg/mL) | 64 µM (≈ 22.9 µg/mL) | 64 µM (≈ 22.9 µg/mL) | 125 µM (≈ 44.8 µg/mL) | 64 µM (≈ 22.9 µg/mL) | 64 µM (≈ 22.9 µg/mL) | 64 µM (≈ 22.9 µg/mL) | 125 µM (≈ 44.8 µg/mL) | 64 µM (≈ 22.9 µg/mL) | 64 µM (≈ 22.9 µg/mL)
5 | C/C(=N\NC(=O)c1ccncc1)C(=O)Nc1ccc(Sc2ccc([N+](=O)[O-])cc2)cc1 | – | – | – | – | ≥ 250 µM | ≥ 250 µM | – | – | ≥ 250 µM | ≥ 250 µM | – | – | ≥ 250 µM | ≥ 250 µM
6 | CC1COc2c(N3CCN(C)CC3)c(F)cc3c(=O)c(C(=O)O)cn1c23 (stereo not drawn) [OFLOXACIN] | 1.4 µM (≈ 0.506 µg/mL) | 1.4 µM (≈ 0.506 µg/mL) | > 22 µM | > 22 µM | 22 µM (≈ 7.95 µg/mL) | > 17 µM | 0.7 µM (≈ 0.253 µg/mL) | 0.7 µM (≈ 0.253 µg/mL) | 2.8 µM (≈ 1.01 µg/mL) | 2.8 µM (≈ 1.01 µg/mL) | 11 µM (≈ 3.98 µg/mL) | 11 µM (≈ 3.98 µg/mL) | 11 µM (≈ 3.98 µg/mL) | 11 µM (≈ 3.98 µg/mL)
